Measurements from US20120083473A1, “TREATMENT OF CONDITIONS BY TOLL-LIKE RECEPTOR MODULATORS” (priority 2010, published 2012).

How the values were obtained:
[1] = tested on: Peritoneal macrophages (PEC); assay: Tolerance and M1/M2 gene expression in murine peritoneal macrophages (Real-Time PCR); assay type: cell-based, mice
Method: Peritoneal macrophages (PEC) isolated from C57 black mice are used to test the tolerogenic effects of compound 2 of Table 2. The effects of this TLR7 ligand are analyzed in terms of gene expression (Real-Time PCR) of both pro-inflammatory (e.g. TNF-alpha, IL-1, IL-6) and anti-inflammatory (e.g. IL-10, TGF-beta) cytokines. Further, additional markers of M1 (e.g. iNOS, IL-12, IFN-beta, CXCL9, CXCL10) versus M2 (e.g. arginase I, Ym1, Fizz1, CCL17, CCL22, dectin 1, MGL) macrophage polarization is determined, in order to evaluate the polarizing activities of this compound. This analysis is instrumental to the understanding of mechanisms driving the tolerogenic action of compound 2 of Table 2, as an M2 polarized response is considered to be an alternative anti-inflammatory and “tolerogenic” macrophage program.
With respect to macrophage tolerance, cells are treated with two doses of compound 2 of Table 2 (1 microM and 10 microM) up to 20 hours and then re-challenged with agonists/ligands of different TLRs (TLR2, TLR4, TLR5, TLR9, TLR7, etc.), including the TLR7 unconjugated ligand 1V209 (free pharmacophore) at a concentration of 10 microM.
In a first run of experiments, the tolerogenic and polarizing ability of compound 2 of Table 2, which also is referred to hereafter as “TMX,” was evaluated. To induce tolerance, PEC were pre-treated for 20 hours with 10 μM or 1 μM TMX. Next, total RNA from control (M/M), TMX activated (M/T), 1V209 (free pharmacophore)-activated (M/I), tolerant (T/M) and tolerant PEC re-challenged with TMX (T/T) or with 1V209 (free pharmacophore) (T/I), were analyzed by RT PCR for the expression of representative M1 and M2 genes. […] However, most of the M1 genes transcripts were still induced (FIG. 1C, D).
(§1) Cell Culture and treatments. Peritoneal exudate cells (PEC) were harvested from mice injected with 1 ml of 3% (w/v) thioglycollate medium (Difco, Detroit, Mich.) 4 days prior to isolation. PECs were incubated in RPMI 1640 medium, containing 10% fetal bovine serum, 2 mM glutamine and 100 U/ml of penicillin-streptomycin. The concentration for the different treatments were as follows: LPS (100 ng/ml) (Lipopolysaccharide from Salmonella Abortus Equi S-form, Alexis), CpG (1 μg/ml), Pam3CSK (2 μg/ml), Poly I:C (10 μg/ml), Loxorubine (100 μM), flagellin (100 ng/ml) IL-1β (20 ng/ml), TNF (20 ng/ml), IL-10 (20 ng/ml) (Peprotech), IFNγ (200 U/ml) (Peprotech). To induce TMX tolerance, cells were incubated in the presence of TMX (10 μM or 1 μM) for 20 hrs, washed and maintained in RPMI medium for 2 hrs and then re-challenged with TMX (10 μM) for 4 hrs. To induce TMX-tolerization (T/M) cells were treated with TMX for 20 hrs, washed and then maintained in medium for additional 6 hours, without TMX re-challenge. To induce M1-activation, cells were incubated in medium for 20 hrs, washed, left in medium for 2 hrs and finally stimulated with TMX (10 μM) for 4 hrs. Control cells (M/M) were cultured in medium for the entire period of the experiment. For gene expression analysis, total RNA was extracted from TMX treated and untreated cells with trizol (Invitrogen), according to the manufacturer's instructions. To analyze cytokines and chemokines production supernatants were collected 24 hrs after the second challenge with TMX.
Real-Time PCR. Total RNA was purified as previously described. Briefly, reverse transcription from 1 μg of RNA was performed using cDNA Archive kit (Applied Biosystem, NJ, USA). Real time PCR was performed using Power Syber Green PCR Master Mix (Applied Biosystem, NJ, USA) and detected by 7900HT Fast Real-Time System (Applied Biosystem, NJ, USA). Data were processed using the SDS2.2.2 software (Applied Biosystem, NJ, USA). Results were normalized to the expression of the housekeeping gene β-actin and then expressed as folds of upregulation, with respect to the control cell population.

NF-κB and STATs = NF-κB and STATs activity in TMX-tolerant macrophages (Western blot); assay type: cell-based, mice
Method: To investigate NF-κB and STATs activity upon TMX-mediated activation and tolerance, p65 and p50 NE-KB nuclear translocation and the levels of phospho-STATs proteins, respectively was analyzed. PEC treated 15 min with IFN-γ (500 U/mL) or with IL-10 (20 ng/ml) were used as positive controls for phospho-STAT1 and phospho-STAT3, respectively. In tolerance TMX 10 microM induces nuclear accumulation of p50 NF-kappaB and phosphorylation of STAT-3 (FIG. 6).
as §1, with “To analyze cytokines and chemokines production supernatants were collected 24 hrs after the second challenge with TMX.” left out
Western blot analysis. For the NF-κB proteins, nuclear and cytosolic extracts were analyzed by SDS/PAGE (10% acrylamide) as described. […] Then, optical density was determined by “Quantity One” software.

[2] = PEC pre-treated 20 hours with 10 μM TMX, RT PCR

In the case of `COCCOc1nc(N)c2nc(O)n(Cc3ccc(C(=O)NCCOCCOCCOCCOCCOCCOCCn4cc(CCC(=O)O)nn4)cc3)c2n1` [Compound 2], the M2 gene expression ([1]; 1 μM TMX pre-treatment, except for IL-10) is reported as “did not enhance”, the “M1 (TNF-alpha, IL-12, IFN-beta, CXCL10) gene expression in state of tolerance” value [1, 2] is reported as “low” and the “selected M2 genes (IL-10, TGFβ, Arg I, CCL17, CCL22) in state of tolerance” value [1, 2] is reported as “high levels”. The “M2 markers Ym1, Fizz1, MGL2 gene transcripts” value ([1]; PEC, TMX) was “No significant modulation”, the induction of tolerance ([1]; pre-treatment with 1 μM TMX, except for IL-12p40) was “unable to induce tolerance” and the macrophage activation ([1]; prolonged exposure of PEC to high concentration of TMX) was “M2 skewed activation”. The “activation of STAT-6” value (NF-κB and STATs; any condition) was “No detectable activation”, the “nuclear accumulation of p50 NF-kappaB” value (NF-κB and STATs; in tolerance, TMX 10 microM) was “induces” and the “phosphorylation of STAT-3” value (NF-κB and STATs; in tolerance, TMX 10 microM) was “induces”.
